Measurements taken from PMC12344696, “Elucidation of the Synergistic Interaction Between Bilirubin and Casein Protein: An Integrated Spectroscopy and Computational Approach” (Biomacromolecules, 2025).

Target: T1, casein (CAS) protein; CAS micelles
T1 construct: gene CSN1S1; whole casein mixture (alpha, beta, kappa), self-assembled micelles above CMC
Experiment: UV-vis absorption titration of BIL with casein, Hill1 fit
Details: phosphate buffer pH 7.3, 298 K; casein mixture 0.05-3 mg/mL across the CMC; converted from a mg/mL fit with average casein mass 22,500 Da; read-out: binding constant (converted)

Work on `C=CC1=C(C)/C(=C/c2[nH]c(Cc3[nH]c(/C=C4\NC(=O)C(C)=C4C=C)c(C)c3CCC(=O)O)c(CCC(=O)O)c2C)NC1=O` [BIL, bilirubin] yielded a Kd of 33.3 µM.
